# What was measured:
# [1] = target: T1, Solute carrier family 22 member 12 (Homo sapiens, UniProt Q96S37); experiment: Inhibitory Assay
# T1 sequence (Q96S37 whole entry): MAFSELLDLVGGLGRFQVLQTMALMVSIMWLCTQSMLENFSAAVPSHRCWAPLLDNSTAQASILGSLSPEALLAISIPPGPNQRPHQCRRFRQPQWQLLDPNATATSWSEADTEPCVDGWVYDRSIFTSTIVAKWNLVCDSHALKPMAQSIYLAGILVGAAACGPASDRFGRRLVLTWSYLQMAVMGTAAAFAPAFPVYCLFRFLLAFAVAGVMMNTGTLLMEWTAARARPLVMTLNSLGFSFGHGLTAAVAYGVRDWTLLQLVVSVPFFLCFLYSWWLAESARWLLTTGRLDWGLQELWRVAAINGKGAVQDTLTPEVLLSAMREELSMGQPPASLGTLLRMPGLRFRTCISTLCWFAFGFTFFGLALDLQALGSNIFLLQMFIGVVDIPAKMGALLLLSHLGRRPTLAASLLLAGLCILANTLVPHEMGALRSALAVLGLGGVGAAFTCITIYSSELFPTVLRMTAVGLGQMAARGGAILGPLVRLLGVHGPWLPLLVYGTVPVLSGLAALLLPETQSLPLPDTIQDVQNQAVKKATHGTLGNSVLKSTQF
# [2] = target: T2, Solute carrier family 22 member 11 (Homo sapiens, UniProt Q9NSA0); experiment: Inhibitory Assay
# T2 sequence (Q9NSA0 whole entry): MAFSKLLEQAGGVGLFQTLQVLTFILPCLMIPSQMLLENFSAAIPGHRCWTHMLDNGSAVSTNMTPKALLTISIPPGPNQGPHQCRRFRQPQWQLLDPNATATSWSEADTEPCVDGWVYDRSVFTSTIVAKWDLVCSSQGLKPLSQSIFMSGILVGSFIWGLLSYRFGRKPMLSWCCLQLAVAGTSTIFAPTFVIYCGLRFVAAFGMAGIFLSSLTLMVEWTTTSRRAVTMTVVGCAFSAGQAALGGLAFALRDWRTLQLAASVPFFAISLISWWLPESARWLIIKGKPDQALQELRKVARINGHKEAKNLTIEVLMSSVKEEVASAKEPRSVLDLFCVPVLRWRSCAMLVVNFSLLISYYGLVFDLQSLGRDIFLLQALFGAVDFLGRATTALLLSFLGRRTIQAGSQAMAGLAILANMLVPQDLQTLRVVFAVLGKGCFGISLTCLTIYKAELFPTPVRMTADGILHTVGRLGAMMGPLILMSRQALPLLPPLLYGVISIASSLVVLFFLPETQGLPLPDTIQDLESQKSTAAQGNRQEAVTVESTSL
Structure (SMILES),IC50 [1] [nM],IC50 [2] [µM]
"Cc1ccc2nccc(SC(C)(C)C(=O)NS(C)(=O)=O)c2c1 [US20240116873, Compound A]",3150,
"CC(C)(Sc1ccnc2ccc(F)cc12)C(=O)NS(C)(=O)=O [US20240116873, Compound B]",2790,
"CCS(=O)(=O)NC(=O)C(C)(C)Sc1ccnc2ccc(Br)cc12 [US20240116873, Compound C]",1180,

# Next, values leading:
IC50 [1] [nM],IC50 [2] [µM],Structure (SMILES)
,83.8,"CC(C)(Sc1ccnc2ccc(C(F)(F)F)cc12)C(=O)NS(C)(=O)=O [US20240116873, Compound D]"
3420,,"CC(C)(Sc1ccnc2ccc(Br)cc12)C(=O)NS(=O)(=O)c1cccs1 [US20240116873, Compound E]"
